“Also recorded” adds a separate entry of the source.
What was measured:
Type in all cases: cell-based, Chinese Hamster
[1] = tested on: Cell Line 2 (CHO) expressing Antibody 2; assay: Acidic species variants (WCX-10) of Antibody 2, Cell Line 2 lab-scale bioreactor culture; details: 0.1 g/L
Method: (§1) Four different recombinant Chinese Hamster Ovary (CHO) cell lines expressing four different recombinant glycoproteins were evaluated in either shaker flask culture, or 3 L laboratory scale bioreactors. Cell Line 1 was genetically engineered to express Antibody 1, Cell Line 2 was genetically engineered to express Antibody 2, Cell Line 3 was genetically engineered to express dual variable domain immunoglobulin 1 (DVD1) and Cell Line 4 was genetically engineered to express dual variable domain immunoglobulin 2 (DVD2).
Charge Heterogeneity via Weak Cation Exchange Chromatography-Samples were analyzed using an HPLC system equipped with a ProPac WCX-10 analytical column (Thermo Scientific, Sunnyvale, Calif.). Approximately 100 μg of sample was loaded in 6% Buffer B (10 mM sodium phosphate, 500 mM NaCl, pH 5.5) and 94% Buffer A (10 mM sodium phosphate, pH 7.5). The column was run at a flow rate of 1.0 mL/min. The protein was eluted from the column by increasing the buffer B composition from 6% to 16% over 20 minutes. The protein peaks were measured using UV absorbance at 280 nm as the peaks eluted from the column. The column was regenerated using 100% buffer B followed be a re-equilibration period using initial condition before the injection of the next sample. […]

[2] = tested on: Cell Line 3 (CHO) expressing DVD1; assay: Acidic species variants (WCX-10) of DVD1, Cell Line 3 shake flask culture; details: shaker
Method: as §1
Charge Heterogeneity via Weak Cation Exchange Chromatography-Samples were analyzed using an HPLC system equipped with a ProPac WCX-10 analytical column (Thermo Scientific, Sunnyvale, Calif.). Approximately 100 μg of sample was loaded in 6% Buffer B (10 mM sodium phosphate, 500 mM NaCl, pH 5.5) and 94% Buffer A (10 mM sodium phosphate, pH 7.5). The column was run at a flow rate of 1.0 mL/min. The protein was eluted from the column by increasing the buffer B composition from 6% to 16% over 20 minutes. The protein peaks were measured using UV absorbance at 280 nm as the peaks eluted from the column. The column was regenerated using 100% buffer B followed be a re-equilibration period using initial condition before the injection of the next sample. Peaks eluting before the main peak were termed ‘acidic peaks’ and peaks eluting after the main peak were called ‘basic peaks’ (FIG. 2).
To assess the impact of EGCG on acidic region variants on recombinant proteins, dual variable domain immunoglobulin 1 (DVD1) was examined. EGCG was added at the concentrations of 0.02 g/L, 0.05 g/L, 0.1 g/L and 0.2 g/L into the feed in a shaker experiment (See Table 2). […] At the concentration of 0.2 g/L, EGCG led to 15% viability decrease and 28% productivity loss compared to control condition. Upon measurement of the acidic species variants, EGCG supplement reduced the total acidic species in a dose-dependent manner. At the concentrations of 0.02 g/L, 0.05 g/L, 0.1 g/L and 0.2 g/L respectively, EGCG reduced the total acidic species content 5%, 10%, 17% and 22% relatively compared to the unsupplemented control (FIG. 13D).

[3] = tested on: Cell Line 1 (CHO) expressing Antibody 1; assay: Intracellular ROS by flow cytometry (H2-DCF), Cell Line 1 3 L bioreactor culture; details: bioreactor cultures; Days 6, 8, 12, 15; vs unsupplemented control
Method: At least 10×10^6 cells were harvested from 3 L bioreactor cultures on Days 6, 8, 12, and 15 after inoculation. Immediately after sampling, the samples were centrifuged and the cell pellet was washed with 1×PBS, and re-suspended in 1 mL of pre-warmed 1×PBS. 2 μL of 2 mM H2-DCF (Life Technologies, Grand Island, N.Y.) in DMSO (Sigma-Aldrich, St. Louis, Mo.) was then added and incubated at 37° C. for 30 minutes and covered from light. The cell suspension was then centrifuged and resuspended in 1×PBS twice to wash the cells and remove residual fluorophore. The cells were then loaded onto a FACSCalibur (Becton Dickinson, Franklin Lakes, N.J.) flow cytometer for the measurement of intracellular ROS at 492-495 nm/517-527 nm excitation/emission.

[4] = tested on: Cell Line 2 (CHO) expressing Antibody 2; assay: Acidic species variants (WCX-10) of Antibody 2, Cell Line 2 shake flask culture; details: 0.05 and 0.1 g/L; shaker
Method: as §1
Charge Heterogeneity via Weak Cation Exchange Chromatography-Samples were analyzed using an HPLC system equipped with a ProPac WCX-10 analytical column (Thermo Scientific, Sunnyvale, Calif.). Approximately 100 μg of sample was loaded in 6% Buffer B (10 mM sodium phosphate, 500 mM NaCl, pH 5.5) and 94% Buffer A (10 mM sodium phosphate, pH 7.5). The column was run at a flow rate of 1.0 mL/min. […] The protein peaks were measured using UV absorbance at 280 nm as the peaks eluted from the column. […]
To further evaluate the impact of EGCG on acidic region variants, Antibody 2 and dual variable domain immunoglobulin 1 (DVD1) were examined. Antibody 2 was evaluated in a set of shaker and lab-scale bioreactor experiments with two feed amounts (100% and 50%) as unsupplemented control conditions. […]

O=C(O[C@@H]1Cc2c(O)cc(O)cc2O[C@@H]1c1cc(O)c(O)c(O)c1)c1cc(O)c(O)c(O)c1 [EGCG, epigallocatechin gallate]
relative reduction of total acidic variants content vs unsupplemented control [1]: 29%-36%
relative reduction of total acidic species content vs unsupplemented control ([2]; 0.02 g/L in feed): 5%
relative reduction of total acidic species content vs unsupplemented control ([2]; 0.05 g/L in feed): 10%
relative reduction of total acidic species content vs unsupplemented control ([2]; 0.1 g/L in feed): 17%
relative reduction of total acidic species content vs unsupplemented control ([2]; 0.2 g/L in feed): 22%
intracellular ROS level [3]: marked reduction of overall ROS level; also recorded: reduced the intracellular ROS level in a dose-dependent fashion
relative reduction of total acidic species content vs unsupplemented control [4]: 21%-45%
